Measurements taken from patent US8420600B2 (Vallinex, Inc., priority 2002, dated 2013).
Where “and” joins values, the source holds several entries; their conditions need not be identical. Equal values may be shown once.

Legend:
[1] = tested on: radiation induced hyperalgesia; conditions: systemically delivered, cited from earlier work
[2] = tested on: subjects undergoing transpositional osteotomy (bunionectomy); assay: Bunionectomy Efficacy Study: VAS pain score and rescue medication; type: in vivo, human; conditions: for VAS pain score (Table 4), mean +/− SEM: 1000 μg into the wound prior to closure, n = 11
Method: The primary efficacy endpoint was the proportion of subjects in each treatment group requiring opioid analgesia in the first 24 hours post-operatively. The proportions were compared amongst treatment groups using the Cochran-Haenszel test. Secondary efficacy end points included: i) proportion of subjects in each treatment group requiring opioid analgesia in the first 36 hour period post-operatively (Similarly, the proportions were compared amongst treatment groups using the Cochran-Haenszel test); ii) proportion of subjects in each treatment group requiring opioid analgesia in the 10 day period post-operatively (Similarly, the proportions were compared amongst treatment groups using the Cochran-Haenszel test); iii) time to first usage of opioid analgesia in each treatment group (a survival analysis approach will be used: the product-limit (Kaplan-Meier) method will be applied to time to first usage of opioid analgesia. The median time to first usage of opioid analgesia will be estimated in both treatment groups. Pairwise comparisons will be performed to test for equality of the survival curves between the 2 treatment groups using both the log-rank and the Wilcoxon test); iv) total usage of analgesia in each treatment group (the total usage of analgesia will be compared by an analysis of variance with treatment and center as independent variables. A pairwise comparison will be performed between the treatment groups); and v) VAS assessment of pain at the site of operation in each treatment group (The VAS score at each time point will be compared by an analysis of variance with treatment and center as independent variables. A pairwise comparison will be performed between the treatment groups). […] The efficacy analysis was performed on the data obtained ten days postoperatively. The safety analysis was performed based on the safety data for the entire study, including the 6 week and 12 week follow-up periods. The blind was broken at the time the efficacy analysis was performed. However, the individual treatment assignment was available to the statistical analysis group only. All other personnel involved in the study, including the Investigator, study monitor and proprietary staff, remained blinded until the entire study was completed.
The study was designed to include 40 evaluation subjects. […] Each subject had six (6) study visits: a Screening Day (Day −28 to −1), an Operation Day (Day 0), and four (4) Follow-up visits (scheduled for Days 3, 10 and weeks 6 and 12).
On Operation Day (Day 0) the following was performed: a) Pre-operation: Prior to the initiation of an ankle block, inclusion/exclusion criteria assessment was performed. […] Immediately prior to wound closure, the Investigator slowly dripped the study medication (4 mL) from a syringe into the wound, ensuring even tissue exposure. The wound was then closed according to normal practices and procedures.
In the 24 hours following administration of study medication, vital signs (supine pulse rate and blood pressure) were recorded at 1, 2, 4 and 24 hours post administration. VAS assessment of pain at the operation site was performed at 1, 4, 8, 12 and 24 hours post administration. In those instances where VAS measurements coincide with blood sampling procedures, the VAS assessment was performed first. […] The quantity of each blood sample was 10 mL. Laboratory safety assessments, e.g., haematology, biochemistry, urinalysis were performed at 24 hours post administration. Adverse events were spontaneously reported by the subject and recorded. Rescue analgesia medication was provided to the subject if required (initially diclofenac 50 mg, repeated at 8 hourly intervals if necessary). When diclofenac was judged by the Investigator to provide inadequate pain relief then the subject was provided with alfentanil, 1 mg, repeated at 6 hourly intervals when necessary.

[3] = tested on: subjects with osteoarthritis of the knee; assay: Osteoarthritis of the Knee Safety Study: safety and tolerability of intra-articular capsaicin; type: in vivo, human
Method: The primary objective of the study was to evaluate the safety and tolerability of intra-articular capsaicin, when co-administered with intra-articular local anesthetic, compared to placebo, in subjects with end-stage osteoarthritis of the knee, already scheduled to receive knee replacements.
(§1) The study was designed to include 16 evaluation subjects. […] Sixteen subjects completed the study.
(§2) Patients were treated randomly and in double-blind fashion in four treatment cohorts, with each cohort having a progressively longer interval between the intra-articular administration of study medication and subsequent total knee replacement (2, 4, 7, and 14 days). […] Gross and microscopic pathology analysis was completed for each treatment cohort before the next treatment cohort was treated.
(§3) Each subject had 3 study visits: a Screening Day (Day −7 to −1), the Treatment Day (Day 0), and a Post-Treatment Day (scheduled for Day +2, +4, +7, or +14). On the Treatment Day the subject was randomized, pre-treatment evaluation was performed. The patients were brought into the procedure room, and a VAS pain score was taken (0 mm—no pain, 100 mm—extreme pain). Once the patient had marked his or her pain on the card, he/she was prepped for knee cannulation. Once the cannula was placed, the patient received by intra-articular infiltration, 3 mg/kg (maximum dose of 200 mg) of 2% lignocaine into the knee scheduled to be replaced.
VAS pain scores as well as verbal reports were taken immediately following administration, as well as prior to knee replacement surgery. No subjects discontinued from the study due to adverse events.
On the Post-Treatment Day, study evaluation was performed followed by the scheduled knee replacement, with intra-operative bone and soft tissue biopsies performed for subsequent examination. […] This therefore left the 3 placebo and 9 active patients from the 4 day, 7 day, and 14 day cohorts.

[4] = tested on: subjects with osteoarthritis of the knee; assay: Osteoarthritis of the Knee Safety Study: VAS pain at the target knee; type: in vivo, human
Method: as §1, §2, §3
VAS pain scores as well as verbal reports were taken immediately following administration, as well as prior to knee replacement surgery. No subjects discontinued from the study due to adverse events. […]

SMILES: COc1cc(CNC(=O)CCCC/C=C/C(C)C)ccc1O [capsaicin, N-(4-hydroxy-3-methoxybenzyl)-8-methylnon-trans-6-enamide]
- effect on radiation induced hyperalgesia ([1]; final doses of 25 mg/kg or less prior to ultra violet radiation): prevented radiation induced hyperalgesia
- effect on pain threshold ([1]; final doses of 25 mg/kg or less): did not elevate the pain threshold above normal range
- VAS pain score (Table 4), mean +/− SEM ([2]; 8 hr): 5.5 +/− 2.3
- VAS pain score (Table 4), mean +/− SEM ([2]; 12 hr): 8.2 +/− 3.8
- VAS pain score (Table 4), mean +/− SEM ([2]; 24 hr): 1.9 +/− 1.0
- VAS pain score (Table 4), mean +/− SEM ([2]; 48 hr): 5.9 +/− 2.5
- effect on opioid rescue ([2]; 1000 μg prior to wound closure): decreased opioid rescue
- time at which a subject required rescue ([2]; 1000 μg prior to wound closure, individual subjects): 1 h and 4 h and 5 h and 8 h and 12 h
- duration of post-administration (hyper) algesic pain ([3]; 300 μg dose group, individual subjects): 17 minutes and 25 minutes (2×) and 42 minutes
- proprioception at the injected knee ([3]; any dose group, any time point): no discernable effect
- average duration of post injection hyperalgesia ([3]; burning sensation, 100 and 300 μg dose groups): less than thirty minutes
- erythema, edema or hemorrhage at the site of injection ([3]; in vivo): no treatment related signs
- histopathological examination of soft tissue, cartilage and bone ([3]; in vivo): no treatment related effects on soft tissue, cartilage, or bone
- laboratory safety parameters and vital signs ([3]; in vivo): no treatment related effects on laboratory safety parameters or vital signs
- systemic side effects ([3]; in vivo): No treatment related systemic side effects were seen
- leakage of study drug from the joint space ([3]; intra-articular, knee): low leakage
- gross and microscopic pathology ([3]; knee tissue at replacement): normal
- reduction of VAS pain score, prior to drug administration vs day of surgery ([4]; 9 active patients of the 4 day, 7 day and 14 day cohorts, 10, 100 and 300 μg pooled): 62±14%
- treatment related indication of efficacy (VAS) ([4]; dose levels 10 μg, 100 μg and 300 μg): No clear treatment related indication of efficacy was seen
